Experimental data published in US20230265105A1, “MACROCYCLIC 7-PYRAZOL-5-YL-INDOLE DERIVATIVES AS INHIBITORS OF MCL-1” (Janssen Pharmaceutica NV, priority 2020, published 2023).

Tests used:
[1] = biological target: Myeloid Cell Leukemia 1 (Mcl-1) (Homo sapiens, UniProt Q07820); assay: Terbium labeled Mcl-1 HTRF binding assay with Cy5-labeled BIM BH3 peptide; conditions: Ki=IC50/(1+[L]/Kd), [L]=8 nM, Kd=10 nM, 60 min incubation at room temperature, read-out: Tb-MCL1 Ki
Method: Terbium labeled Myeloid Cell Leukemia 1 (Mcl-1) homogeneous time-resolved fluorescence (HTRF) binding assay utilizing the BIM BH3 peptide (H2N-(C/Cy5Mal) WIAQELRRIGDEFN-OH) as the binding partner for Mcl-1.
This assay evaluated inhibition of the BH3 domain: Mcl-1 interaction by measuring the displacement of Cy5-labeled BIM BH3 peptide (H2N—(C/Cy5Mal) WIAQELRRIGDEFN-OH) in the HTRF assay format.
The following assay and stock buffers were prepared for use in the assay: (a) Stock buffer: 10 mM Tris-HCl, pH=7.5+150 mM NaCl, filtered, sterilized, and stored at 4° C.; and (b) 1×assay buffer, where the following ingredients were added fresh to stock buffer: 2 mM dithiothreitol (DTT), 0.0025% Tween-20, 0.1 mg/mL bovine serum albumin (BSA). The 1×Tb-Mcl-1+Cy5 Bim peptide solution was prepared by diluting the protein stock solution using the 1×assay buffer (b) to 25 pM Tb-Mcl-1 and 8 nM Cy5 Bim peptide.
Using the Acoustic ECHO, 100 nL of 100×test compound(s) were dispensed into individual wells of a white 384-well Perkin Elmer Proxiplate, for a final compound concentration of 1× and final DMSO concentration of 1%. Inhibitor control and neutral control (NC, 100 nL of 100% DMSO) were stamped into columns 23 and 24 of assay plate, respectively. Into each well of the plate was then dispensed 10 μL of the 1×Tb-Mcl-1+Cy5 Bim peptide solution. The plate was centrifuged with a cover plate at 1000 rpm for 1 minute, then incubated for 60 minutes at room temperature with plates covered.
The TR-FRET signal was read on an BMG PHERAStar FSX MicroPlate Reader at room temperature using the HTRF optic module (HTRF: excitation: 337 nm, light source: laser, emission A: 665 nm, emission B: 620 nm, integration start: 60 μs, integration time: 400 μs).
The BMG PHERAStar FSX MicroPlate Reader was used to measure fluorescence intensity at two emission wavelengths—665 nm and 620 nm—and report relative fluorescence units (RFU) for both emissions, as well as a ratio of the emissions (665 nm/620 nm)*10,000. The RFU values were normalized to percent inhibition as follows:
% inhibition=(((NC−IC)−(compound−IC))/(NC−IC))*100
where IC (inhibitor control, low signal)=mean signal of 1×Tb-MCl-1+Cy5 Bim peptide+inhibitor control or 100% inhibition of Mcl-1; NC (neutral control, high signal)=mean signal 1×Tb-MCl-1+Cy5 Bim peptide with DMSO only or 0% inhibition
An 11-point dose response curve was generated to determine IC50 values (using GenData) based on the following equation:
Y=Bottom+(Top−Bottom)/(1+10^((log IC50−X)*HillSlope))
where Y=% inhibition in the presence of X inhibitor concentration; Top=100% inhibition derived from the IC (mean signal of Mcl-1+inhibitor control); Bottom=0% inhibition derived from the NC (mean signal of Mcl-1+DMSO); Hillslope=Hill coefficient; and IC50=concentration of compound with 50% inhibition in relation to top/neutral control (NC).
In this assay [L]=8 nM and Kd=10 nM
Representative compounds of the present invention were tested according to the procedure as described above, with results as listed in the Table below (n.d. means not determined).

[2] = tested on: MOLP-8 human multiple myeloma cell line; assay: MOLP8 Caspase-Glo 3/7 apoptosis induction assay; assay type: cell-based; conditions: MOLP-8 cells, 2 hours at 37° C.; 30 μM highest conc.; averaged over all runs on all batches
Source text: MCL-1 is a regulator of apoptosis and is highly over-expressed in tumor cells that escape cell death. The assay evaluates the cellular potency of small-molecule compounds targeting regulators of the apoptosis pathway, primarily MCL-1, Bfl-1, Bcl-2, and other proteins of the Bcl-2 family. Protein-protein inhibitors disrupting the interaction of anti-apoptotic regulators with BH3-domain proteins initiate apoptosis.
The Caspase-Glo® 3/7 Assay is a luminescent assay that measures caspase-3 and -7 activities in purified enzyme preparations or cultures of adherent or suspension cells. The assay provides a proluminescent caspase-3/7 substrate, which contains the tetrapeptide sequence DEVD. This substrate is cleaved to release aminoluciferin, a substrate of luciferase used in the production of light. Addition of the single Caspase-Glo® 3/7 Reagent in an “add-mix-measure” format results in cell lysis, followed by caspase cleavage of the substrate and generation of a “glow-type” luminescent signal.
This assay uses the MOLP-8 human multiple myeloma cell line, which is sensitive to MCL-1 inhibition.
Cell cultures were maintained between 0.2 and 2.0×10^6 cells/mL. The cells were harvested by collection in 50 mL conical tubes. The cells were then pelleted at 500 g for 5 mins before removing supernatant and resuspension in fresh pre-warmed culture medium. The cells were counted and diluted as needed.
The assay reagent was prepared by transferring the buffer solution to the substrate vial and mixing. The solution may be stored for up to 1 week at 4° C. with negligible loss of signal.
Compounds were delivered in assay-ready plates (Proxiplate) and stored at −20° C.
Assays always include 1 reference compound plate containing reference compounds. The plates were spotted with 40 nL of compounds (0.5% DMSO final in cells; serial dilution; 30 μM highest conc. 1/3 dilution, 10 doses, duplicates). The compounds were used at room temperature and 4 μL of pre-warmed media was added to all wells except column 2 and 23. The negative control was prepared by adding 1% DMSO in media. The positive control was prepared by adding the appropriate positive control compound in final concentration of 60 μM in media. The plate was prepared by adding 4 μL negative control to column 23, 4 μL positive control to column 2 and 4 μL cell suspension to all wells in the plate. The plate with cells was then incubated at 37° C. for 2 hours. The assay signal reagent is the Caspase-Glo solution described above, and 8 μL was added to all wells. The plates were then sealed and measured after 30 minutes.
The activity of a test compound was calculated as percent change in apoptosis induction as follows:
[formula] [formula] % Effect (AC50)=100−((sample−LC)/(HC−LC))*100
% Control=(sample/HC)*100
% Control min=(sample−LC)/(HC−LC)*100

Chain of Myeloid Cell Leukemia 1 (Mcl-1) (Q07820 whole entry): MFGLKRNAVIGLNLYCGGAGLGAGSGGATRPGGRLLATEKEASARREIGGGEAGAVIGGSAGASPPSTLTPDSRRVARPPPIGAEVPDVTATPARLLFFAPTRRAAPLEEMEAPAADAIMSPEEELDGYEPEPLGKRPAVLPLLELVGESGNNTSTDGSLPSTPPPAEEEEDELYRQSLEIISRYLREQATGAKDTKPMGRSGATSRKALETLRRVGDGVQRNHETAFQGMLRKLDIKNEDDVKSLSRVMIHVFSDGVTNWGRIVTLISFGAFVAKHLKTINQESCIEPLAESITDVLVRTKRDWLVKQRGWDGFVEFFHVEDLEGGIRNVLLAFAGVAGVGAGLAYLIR

Row | Structure (SMILES) | Ki [1] [nM] | AC50 [2] [nM]
1 | COCCn1c(C(=O)O)c2c3ccc(Cl)c(c31)-c1c(cnn1C)CSCc1cc(n(C)n1)CCc1cc(c3ccc(F)cc3c1)OCCC2 (single isomer, unassigned) [Compound 24] | 2.15 | 2530
2 | COCCOCCn1c(C(=O)O)c2c3ccc(Cl)c(c31)-c1c(cnn1C)CSCc1cc(n(C)n1)CCc1cc(c3ccc(F)cc3c1)OCCC2 (single isomer, unassigned) [Compound 20] | 200 | 30000
3 | COCCOCCc1nn(C)c2c1CSCc1cc(n(C)n1)CCc1cc(c3ccc(F)cc3c1)OCCCc1c(C(=O)O)n(C)c3c-2c(Cl)ccc13 (single isomer, unassigned) [Compound 17] | 0.011 | 15
4 | COCCn1c(C(=O)O)c2c3ccc(Cl)c(c31)-c1c(cnn1C)CSCc1cc(n(C)n1)CCc1cc(c3ccc(F)cc3c1)OCCC2 (single isomer, unassigned) [Compound 23] | 0.024 | 27
